Experimental data reported in PMC7391726, “Fatty acid mimetic PBI-4547 restores metabolic homeostasis via GPR84 in mice with non-alcoholic fatty liver disease” (Scientific Reports, 2020).

Test system: HepG2 hepatocytes
Assay: Mitochondrial respiration (Seahorse OCR) in HepG2 hepatocytes
Type: cell-based
Conditions: HepG2, 24 h treatment
Protocol: Moreover, hepatic expression of several genes involved in glucose metabolism including Pklr (pyruvate kinase L/R), G6pc (glucose-6-phosphatase, catalytic) and Slc2a2 (Glut2) was normalized by PBI-4547 (Fig. 4B). […] To test this hypothesis, mitochondrial respiration in HepG2 hepatocytes was measured (Fig. 4C). […] However, it did decrease maximal respiration and ATP production, in agreement with the metabolomics results.
Figure 4 Effects of PBI-4547 on glucose and FA metabolism in liver. (A) Relative gene expression levels of glucose and FA-related metabolism in liver from STD, HFD and HFD + PBI-4547 mice. Data are presented as geometric mean ± SEM (n ≥ 6 per group, one-way ANOVA with Dunnett’s multicomparison test vs HFD group). (B) 1H-NMR metabolic profiling in liver tissues. (C) Oxygen Consumption Rate (OCR) and Extracellular Acidifcation Rate (ECAR) in HepG2 hepatocytes. Measurements of basal respiration, maximal respiration, ATP production and proton leak in HepG2 hepatocytes treated or not with PBI-4547. (D) Oxidation rate of ^14C-palmitate in HepG2 hepatocytes treated or not with PBI-4547. Data are presented as mean ± SEM (n = 3, Student t test Ctrl vs PBI-4547). See also Fig. S2.
Oxygen consumption rate (OCR) and extracellular acidification rate (ECAR) were measured with a Seahorse XF96 as per manufacturer’s protocol (Agilent). Briefly, 8 × 10^4 HepG2 cells were plated onto Seahorse XF96 96-well plates for 24 h prior to stimulation. The next day, cells were treated with PBI-4547 or with vehicle control for 24 h. Cells were subjected to a mitochondrial stress test with serial injections of Oligomycin (1 μM; ATPase inhibitor), FCCP (1 μM; mitochondrial uncoupler) and Rotenenone/Antimycin A (1 μM; complex I/III inhibitor).

Structure (SMILES): CCCCCc1cc(CCCCC)cc(CC(=O)[O-])c1.[Na+] [PBI-4547, 2-[3,5-dipentylphenyl]acetate sodium salt]
- ATP production: decrease
- basal oxygen consumption rate (OCR): did not affect
- maximal respiration: decrease
- mitochondrial proton leak: significantly increased
